Source: article PMC4657974, “Positive Allosteric Modulation of Kv Channels by Sevoflurane: Insights into the Structural Basis of Inhaled Anesthetic Action” (PLoS ONE, 2015)

Columns and labels:
Assay type in all cases: cell-based
K-Shaw2 [1] = molecular target: T1, K-Shaw2 (Drosophila melanogaster, UniProt P17972); test: two-electrode voltage clamp, Xenopus oocytes, Hill fit; settings: inhibition; pH 7.4; 21-23 °C; voltage not given; read-out: K 1; cited from earlier work
T1 construct: gene Shaw; full-length channel, homotetramer, expressed in Xenopus oocytes from cRNA
T1 sequence (P17972 1-498): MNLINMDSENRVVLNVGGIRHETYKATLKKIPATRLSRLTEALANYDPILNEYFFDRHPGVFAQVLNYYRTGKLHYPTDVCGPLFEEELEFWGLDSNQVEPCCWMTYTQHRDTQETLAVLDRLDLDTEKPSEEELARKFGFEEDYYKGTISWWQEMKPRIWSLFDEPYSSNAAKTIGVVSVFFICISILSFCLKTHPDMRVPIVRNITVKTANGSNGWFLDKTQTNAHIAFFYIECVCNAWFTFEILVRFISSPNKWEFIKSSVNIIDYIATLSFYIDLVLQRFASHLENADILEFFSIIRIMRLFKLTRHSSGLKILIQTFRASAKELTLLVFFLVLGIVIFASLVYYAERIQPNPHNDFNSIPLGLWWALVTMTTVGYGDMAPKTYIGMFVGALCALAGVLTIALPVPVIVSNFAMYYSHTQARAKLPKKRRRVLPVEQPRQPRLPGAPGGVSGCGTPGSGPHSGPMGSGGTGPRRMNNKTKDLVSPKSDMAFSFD
Text: two-electrode voltage clamp, Xenopus oocytes, Hill fit on K-Shaw2

ΔT1-K-Shaw2 = molecular target: T2, ΔT1-K-Shaw2 (Drosophila melanogaster, UniProt P17972, DEL2-155); test: as above; settings: read-out: K 1
T2 construct: gene Shaw; T1 domain deleted (lacks residues 2-155), homotetramer, expressed in Xenopus oocytes
T2 sequence (P17972 with tags, fused parts or gaps DEL2-155): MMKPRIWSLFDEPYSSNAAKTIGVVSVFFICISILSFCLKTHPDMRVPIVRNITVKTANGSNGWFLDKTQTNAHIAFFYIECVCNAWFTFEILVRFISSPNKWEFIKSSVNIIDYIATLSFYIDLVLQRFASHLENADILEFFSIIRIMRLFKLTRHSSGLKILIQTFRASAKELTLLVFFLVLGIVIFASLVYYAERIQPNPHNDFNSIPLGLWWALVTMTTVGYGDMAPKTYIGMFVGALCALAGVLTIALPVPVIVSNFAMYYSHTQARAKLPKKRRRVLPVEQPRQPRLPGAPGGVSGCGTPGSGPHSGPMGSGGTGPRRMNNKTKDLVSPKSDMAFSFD
Text: two-electrode voltage clamp, Xenopus oocytes, Hill fit on ΔT1-K-Shaw2

K-Shaw2 [2] = molecular target: T1, K-Shaw2; test: two-electrode voltage clamp, Xenopus oocytes, double Hill fit; settings: read-out: K 1
Text: two-electrode voltage clamp, Xenopus oocytes, double Hill fit on K-Shaw2 | Solid line is the best-fit double Hill equation to the K-Shaw2 data

EC50 (K-Shaw2 [2]) [µM] | SMILES | IC50 (K-Shaw2 [1]) [µM] | IC50 (ΔT1-K-Shaw2) [µM]
– | ClC(Cl)Cl [chloroform] | 700 | –
– | FC(F)(F)C(Cl)Br (centres unmarked) [halothane] | 260 | 380
– | FC(F)OC(Cl)C(F)(F)F (centres unmarked) [isoflurane] | 1690 | –
– | CCCCO [n-butanol] | 10100 | 16400
– | CC(C)c1cccc(C(C)C)c1O [propofol] | 60 | –
80 | FCOC(C(F)(F)F)C(F)(F)F [sevoflurane] | – | –
